Source: PubChem BioAssay AID1963825 (Molecular Pharmacology Branch, DTP, NCI, 2024)

Test: Anticancer human tumor 997537-175-T-J1-PDC patient-derived colon adenocarcinoma cell line growth inhibition [POLQ]
Conditions: 997537-175-T-J1-PDC complex spheroid viability, combination with POLQ inhibitors; for IC50: curve of first compound; for viability, T/C: stronger effect = lower value
Method in brief: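 Three-cell-type spheroids modelling solid tumor plus stroma served as the readout system; POL inhibitors were tested individually and in combination, concentration ranges set by clinical Cmax where known.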
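Also: luminescence signal used as a surrogate for viable cells; spheroids exposed to drugs for seven days before readout.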

For O=c1[nH]cc(F)c(=O)[nH]1 + COC1C(OC(N)=O)C(O)C(Oc2ccc3c(O)c(NC(=O)c4ccc(O)c(CC=C(C)C)c4)c(=O)oc3c2C)OC1(C)C, which IC50 (second compound 0.0316 µM) is on record?
The IC50 was > 10 µM.

What about the IC50 (second compound 0.1 µM) of the same compound?
The IC50 was > 10 µM.

What about the IC50 (second compound 0.316 µM) of the same compound?
Its IC50 is > 10 µM.

And the IC50 (second compound 1 µM)?
Its IC50 is > 10 µM.

What about the IC50 (second compound 3.16 µM) of the same compound?
Its IC50 is > 10 µM.

What about the IC50 (second compound 10 µM) of the same compound?
The IC50 was > 10 µM.

And the viability, T/C (second compound 0.0316 µM, first compound 0.0316 µM)?
Its viability, T/C is 102%.

And the viability, T/C (second compound 0.0316 µM, first compound 0.1 µM)?
Its viability, T/C is 102%.

And the viability, T/C (second compound 0.0316 µM, first compound 0.316 µM)?
Its viability, T/C is 112%.

And the viability, T/C (second compound 0.0316 µM, first compound 1 µM)?
The viability, T/C was 87.8%.

And the viability, T/C (second compound 0.0316 µM, first compound 3.16 µM)?
The viability, T/C was 78.7%.

What about the viability, T/C (second compound 0.0316 µM, first compound 10 µM) of the same compound?
Its viability, T/C is 76.2%.

What about the viability, T/C (second compound 0.1 µM, first compound 0.0316 µM) of the same compound?
Its viability, T/C is 86.3%.

What about the viability, T/C (second compound 0.1 µM, first compound 0.1 µM) of the same compound?
The viability, T/C was 104%.

And the viability, T/C (second compound 0.1 µM, first compound 0.316 µM)?
The viability, T/C was 104%.

And the viability, T/C (second compound 0.1 µM, first compound 1 µM)?
Its viability, T/C is 114%.

And the viability, T/C (second compound 0.1 µM, first compound 3.16 µM)?
Its viability, T/C is 102%.

And the viability, T/C (second compound 0.1 µM, first compound 10 µM)?
Its viability, T/C is 90.3%.

And the viability, T/C (second compound 0.316 µM, first compound 0.0316 µM)?
The viability, T/C was 95.3%.

And the viability, T/C (second compound 0.316 µM, first compound 0.1 µM)?
Its viability, T/C is 103%.

And the viability, T/C (second compound 0.316 µM, first compound 0.316 µM)?
Its viability, T/C is 105%.

And the viability, T/C (second compound 0.316 µM, first compound 1 µM)?
The viability, T/C was 87.7%.

And the viability, T/C (second compound 0.316 µM, first compound 3.16 µM)?
Its viability, T/C is 85.2%.

And the viability, T/C (second compound 0.316 µM, first compound 10 µM)?
Its viability, T/C is 97.2%.

And the viability, T/C (second compound 1 µM, first compound 0.0316 µM)?
The viability, T/C was 96.7%.

And the viability, T/C (second compound 1 µM, first compound 0.1 µM)?
The viability, T/C was 108%.

What about the viability, T/C (second compound 1 µM, first compound 0.316 µM) of the same compound?
Its viability, T/C is 110%.

And the viability, T/C (second compound 1 µM, first compound 1 µM)?
The viability, T/C was 89.9%.

What about the viability, T/C (second compound 1 µM, first compound 3.16 µM) of the same compound?
Its viability, T/C is 92.2%.

What about the viability, T/C (second compound 1 µM, first compound 10 µM) of the same compound?
The viability, T/C was 87.5%.

And the viability, T/C (second compound 3.16 µM, first compound 0.0316 µM)?
Its viability, T/C is 108%.

And the viability, T/C (second compound 3.16 µM, first compound 0.1 µM)?
The viability, T/C was 104%.

And the viability, T/C (second compound 3.16 µM, first compound 0.316 µM)?
The viability, T/C was 101%.

And the viability, T/C (second compound 3.16 µM, first compound 1 µM)?
The viability, T/C was 101%.

And the viability, T/C (second compound 3.16 µM, first compound 3.16 µM)?
Its viability, T/C is 103%.

What about the viability, T/C (second compound 3.16 µM, first compound 10 µM) of the same compound?
Its viability, T/C is 92.6%.

And the viability, T/C (second compound 10 µM, first compound 0.0316 µM)?
Its viability, T/C is 95.8%.

And the viability, T/C (second compound 10 µM, first compound 0.1 µM)?
Its viability, T/C is 98.2%.

And the viability, T/C (second compound 10 µM, first compound 0.316 µM)?
The viability, T/C was 95.3%.

What about the viability, T/C (second compound 10 µM, first compound 1 µM) of the same compound?
The viability, T/C was 84.2%.

What about the viability, T/C (second compound 10 µM, first compound 3.16 µM) of the same compound?
Its viability, T/C is 96.9%.

What about the viability, T/C (second compound 10 µM, first compound 10 µM) of the same compound?
Its viability, T/C is 85.3%.
